Entries after “also recorded” stand apart in the source; their conditions may differ.
Tests used:
HeLa S3 cells = test: Cell proliferation assay (MTS/PMS), HeLa S3 cells; type: cell-based; conditions: HeLa cell line; 72 h at 37 °C
Protocol: (§1) Cell Culture. H460 cells and HeLa S3 cells were purchased from American Type Culture Collection (ATCC). H460 cells were maintained in RPMI-1640 medium supplemented with 10% fetal bovine serum (FBS). HeLa S3 cells were maintained in Dulbecco's Modified Eagle's Medium supplemented with 10% fetal bovine serum (FBS).
(§2) Cell Proliferation Assay. A solution of H460 or HeLa S3 cells (3000 cells/well) in growth medium was seeded onto a 96-well plate. The 96-well plate was incubated for 24 h at 37° C. Stock solutions of each compound were serially diluted and administrated to cells to achieve final concentrations of 38 nM to 83 μM (DC-45-A2 and iso-DC-45-A2) or 3.4 nM to 7.5 μM (dideoxy-DC-45-A2). After incubating at 37° C. for 72 h, 20 μL of MTS/PMS solution (Promega CellTiter 96® Aqueous Non-Radioactive Cell Proliferation Assay) was added to each well. After incubating at 37° C. for 3.5 h, the absorbance at 490 nm was recorded using a microplate reader (SpectraMax PLUS384) as a measure of viable cells. Percent growth inhibition was calculated for each well based upon the following formula: percent growth inhibition=100×(C−T)/C, where T is the absorbance of the well containing the test compound minus the average absorbance of wells containing media alone, and C is the average absorbance of wells containing vehicle control-treated cells minus the average absorbance of wells containing media alone. […]

H460 cells = test: Cell proliferation assay (MTS/PMS), H460 cells; type: cell-based; conditions: H460 cell line (printed H4609 in b565); 72 h at 37 °C
Protocol: as §1, §2

[1] = tested on: self-complementary duplex 12-mer d(AATTACGTAATT) (SEQ ID NO: 1); test: DNA alkylation detected by LC/MS; type: biochemical; conditions: for covalent DNA-small molecule complex formed (LC/MS chromatogram): oligonucleotide 100 μM, 1 equiv compound, pH 7 buffer; for products from alkylated oligonucleotide after piperidine treatment: 1.0 M piperidine, 30 minutes at 95 °C
Excerpt: Next, we performed a set of experiments to determine whether the DC-45-A2 and dideoxy-DC-45-A2 complexes observed by DNA-gel electrophoresis were covalent or not. A liquid chromatography-mass spectrometry (LC/MS) method was developed for the detection of DNA oligonucleotides and covalent DNA-small molecule complexes. The mass spectrometer was used in a negative ion mode under conditions that had been optimized for the detection of single-stranded nucleic acids.
To solutions of the oligonucleotide d(AATTACGTAATT) (SEQ ID NO: 1) (100 μM) in pH 7 buffer were added, in three separate reaction vials, 1 equiv of DC-45-A2, 1 equiv of iso-DC-45-A2, or 1 equiv of dideoxy-DC-45-A2. After incubation for 24 h at 23° C., it was evident from the LC/MS chromatogram that a covalent DNA-small molecule complex had formed in both the DC-45-A2 and dideoxy-DC-45-A2 reaction mixtures but not in the iso-DC-45-A2 reaction mixture (FIG. 13). The alkylated single-stranded oligonucleotide eluted as a signal that was separate from the non-alkylated oligonucleotide. […] The absence of an iso-DC-45-A2 complex is consistent with the absence of reactivity of this compound towards the oligonucleotide under the alkylation conditions in the DNA-gel experiment described in the section above. The IC50 values of the three compounds in antiproliferative assays are also depicted in FIG. 13.
To test whether or not alkylation by DC-45-A2 and dideoxy-DC-45-A2 occurs at the N7 guanine site via the same epoxide opening mechanism observed for trioxacarcin A, we treated samples of alkylated oligonucleotide with piperidine to provide a product solution with a final concentration of 1.0 M in piperidine. […] This fragmentation is consistent with induced single strand cleavage of the type observed in the Maxam-Gilbert G-specific reaction that is associated with N7 guanine alkylation. In the present case, the guanine residue has been excised and the phosphates at the 3′ and 5′ positions have been eliminated to give the two fragment strands.
General Method: To a solution of dsDNA [ds(AATTACGTAATT) (SEQ ID NO: 1), 1.07 mM] in alkylation buffer (86.7 μL, see above for preparation of solutions) in a 1.7-mL centrifuge tube was added a solution of DC-45-A2 in DMSO (2.00 μL, 5 mM). The sample was votexed, then rotated end-over-end at 23° C. for 2 h. The sample was stored at 4° C. for 16 h. The sample was diluted to a concentration of 5 μM of dsDNA. A 10 μL sample of the diluted solution was injected into a short oligonucleotide column (gradient elution with […] TEAB buffer and methanol, flow rate 150 μL/min) and the column output was monitored by mass spectrometry in a negative ionization mode. The doubly deionized DC-45-A2-alkylated single-stranded DNA oligonucleotide (mass/charge=2079.4) was detected at 9.32 min.
To five separate solutions (designated as vials 1-5) of duplex DNA oligonucleotide d(AATTACGTAATT) (SEQ ID NO: 1) (0.72 mM [concentration of the DNA duplex] in alkylation buffer [see paragraph above for preparation], 13.9 μL, 10 nmol, 1 equiv) in alkylation buffer (84.1 μL) were added, respectively, DC-45-A2 (5.0 mM solution in dimethylsulfoxide, 2.0 μL, 10 nmol, 1.0 equiv, vials 1 and 2), iso-DC-45-A2 (5.0 mM solution in dimethylsulfoxide, 2.0 μL, 10 nmol, 1.0 equiv, vial 3), and dideoxy-DC-45-A2 (5.0 mM solution in dimethylsulfoxide, 2.0 μL, 10 nmol, 1.0 equiv, vials 4 and 5). The samples were vortexed, then rotated end-over-end at 23° C. After 23 h 30 min, vials 2 and 5 were diluted with piperidine (10 μL) and placed in a heating block at 95° C. After 30 min, vials 2 and 5 were cooled by centrifugation for 30 seconds (VWR Labnet C-1200 Minicentrifuge). After a total reaction time of 24 h, a 5-μL aliquot was removed from each of the five reaction mixtures. Each aliquot was diluted with alkylation buffer (95 μL, see above for preparation). […]

## COc1c2c(c(O)c3c4c(c(C)cc13)[C@H]1O[C@]3(C(OC)OC)O[C@H]1[C@](O)(O4)[C@@]31CO1)C(=O)[C@@H](O)C[C@@H]2O [iso-DC-45-A2, 11,12,13,15-tetraepi-DC-45-A2]
HeLa S3 cells
  IC50, growth inhibition: inactive
H460 cells
  IC50, growth inhibition: inactive
[1]; 24 h at 23 °C
  covalent DNA-small molecule complex formed (LC/MS chromatogram): not

## DC-45-A2
HeLa S3 cells
  IC50, growth inhibition: micromolar; also recorded: submicromolar
H460 cells
  IC50, growth inhibition: micromolar; also recorded: submicromolar
[1]
  products from alkylated oligonucleotide after piperidine treatment: pTAATT and AATTACp
[1]; 24 h at 23 °C
  covalent DNA-small molecule complex formed (LC/MS chromatogram): had formed

## Dideoxy-DC-45-A2
[1]
  products from alkylated oligonucleotide after piperidine treatment: pTAATT and AATTACp
[1]; 24 h at 23 °C, compared with DC-45-A2 complex
  relative abundance of the covalent complex: greater relative abundance
[1]; 24 h at 23 °C
  covalent DNA-small molecule complex formed (LC/MS chromatogram): had formed

Reference: patent US9102697B2, “Trioxacarcins and uses thereof” (President and Fellows of Harvard College, priority 2010, dated 2015)
